Experimental data from article PMC6057649, “Development of NanoLuc-PEST expressing Leishmania mexicana as a new drug discovery tool for axenic- and intramacrophage-based assays” (PLoS Neglected Tropical Diseases, 2018).

Tested on: NanoLuc-PEST expressing L. mexicana axenic amastigotes
Experiment: microbe, parasite or virus in culture
Format: cell-based
Settings: for EC50: hit compounds from the axenic amastigote screen, S3 Table, read-out: EC50, Axenic Amastigotes
[1] = 2 µM compound, 72 hours, relative to DMSO only control, n = 4
[2] = 10 µM compound, 72 hours, relative to DMSO only control, n = 4

SMILES	Relative Bioluminescence (%) [1] [%]	Relative Bioluminescence (%) [2] [%]	viability at 2 µM (Leishmania mexicana, 2 µM compound, 72 hours, relative to DMSO only control, n = 4, read-out: Relative Bioluminescence (%)) [%]	viability at 10 µM (Leishmania mexicana, 10 µM compound, 72 hours, relative to DMSO only control, n = 4, read-out: Relative Bioluminescence (%)) [%]	EC50 [nM]
CCOc1ccccc1C(=O)Nc1cccc(-c2nc3ncccn3c2C)c1 [MMV019790]	85.04	56.75			
O=C(NC1CC1)c1ccc(CSCc2ccccc2Cl)o1 [MMV007803]	113.68	107.95			
CCN(CC)CCCCCCNc1cc(OC)cc2c(C)ccnc12 [MMV000063, Sitamaquine, reference compound]			69.6	73.6	
CCCNC(=O)N1CCC2(CC1)CC(=O)c1cc(C)ccc1O2 [MMV085230]	100.02	105.91			
COc1ccc(-c2cnc3ccc(N4CCCC4)nn23)cc1OC [MMV023985]	57.95	46.63			
c1ccc(Oc2ccc(-c3cncc(-c4ccc5[nH]ccc5c4)n3)cc2)cc1 [MMV688178]	91.24	94.95			
N#Cc1nc(-c2ccccc2F)oc1NCCc1ccccc1 [MMV676384]	51.03	59.90			
CO/C=C(/C(=O)OC)c1ccccc1Oc1cc(Oc2ccccc2C#N)ncn1 [MMV021057, Azoxystrobin]	62.63	55.66			
CCC(=O)Nc1ccccc1C(=O)Nc1ccccn1 [MMV202553]	76.92	77.09			
COc1cccc(OC)c1C(=O)Nc1ccc(Cl)c(-c2nc3ccccc3s2)c1 [MMV676472]	106.46	93.04			
O=C(C(Cc1c[nH]c2ccccc12)NS(=O)(=O)c1ccc(Cl)cc1)N1CCCCC1 (centres unmarked) [MMV085210]	65.83	73.33			
Cc1cc(NCCc2ccccc2)nc(NC(=N)Nc2ccc(Cl)cc2)n1 [MMV021660]	89.16	56.67			
CC(C)(C)OC(=O)N1CCC(Cn2nc(-c3cnc4ccccc4c3)c3c(N)ncnc32)CC1 [MMV688364]	80.73	58.45			
CCOc1ccc2cc(-c3nn(CC4CCN(C)CC4)c4ncnc(N)c34)ccc2c1 [MMV688854]	92.07	66.13			
Clc1ccc(-n2cc(COc3ccnc4ccccc34)nn2)cc1 [MMV675994]	74.96	81.16			
O=C(Nc1c(O)cccc1-c1nc2c(C(=O)O)cccc2o1)c1cc(-c2ccccc2)on1 [MMV676008]	79.00	-1.15			
Nc1ccc2ncnc(Nc3ccc(OCc4cccc(F)c4)c(Cl)c3)c2c1 [MMV688273]	63.86	0.09			
CC(=O)N(CCN(C(=O)c1ccc(F)cc1)c1ccccc1)c1ccccc1 [MMV676064]	105.34	123.90			
Cc1[nH]c2cc(F)cc(F)c2c(=O)c1-c1ccc(Oc2ccc(OC(F)(F)F)cc2)cc1 [MMV671636]	40.19	3.97			
NCC(c1cccs1)S(=O)(=O)c1ccccc1 (centres unmarked) [MMV688557]	71.96	58.46			

SMILES	Relative Bioluminescence (%) [1] [%]	Relative Bioluminescence (%) [2] [%]	viability at 2 µM (Leishmania mexicana, 2 µM compound, 72 hours, relative to DMSO only control, n = 4, read-out: Relative Bioluminescence (%)) [%]	viability at 10 µM (Leishmania mexicana, 10 µM compound, 72 hours, relative to DMSO only control, n = 4, read-out: Relative Bioluminescence (%)) [%]	EC50 [nM]
O=C(NCc1cc(Cl)cc(Cl)c1)c1c(C(F)(F)F)nc2ccccn12 [MMV687699]	81.42	62.05			
Clc1cccc(C(c2ccc(CN3CCNCC3)cc2)n2ccnc2)c1 (centres unmarked) [MMV663250]	96.52	69.77			
CS(=O)(=O)Cc1nc2ccccc2oc1=O [MMV553002]	72.57	58.91			
O=C(Nc1cnc2ccccc2c1)c1cccc(-n2cnnn2)c1 [MMV084864]	74.64	55.81			
O=C(COc1cccc(F)c1)Nc1nc(-c2ccccn2)cs1 [MMV676409]	37.25	12.84			
OC[C@H]1O[C@@H](n2c3ccc(Cl)cc3c3c(-c4cc5ccccc5o4)ncnc32)C(O)[C@H]1O (some centres unmarked) [MMV688921]	84.76	105.56			
CCN(CC)CCCN1CCN(C(=O)c2cccc(-c3noc(C(F)(F)F)n3)c2)CC1 [MMV022236]	74.51	94.61			
O=C(Nc1ccccc1)c1ccc(-c2cc3ccncc3cc2OC2CCNCC2)s1 [MMV024035]	86.60	79.61			
O=C(c1ccc(NCCO)cc1)C1C[C@H]1c1ccc(Cl)cc1 (some centres unmarked) [MMV676877]	100.77	116.30			
O=C1Nc2ccc(Br)cc2C12NCCc1c2[nH]c2ccccc12 (centres unmarked) [MMV006239]	107.64	108.03			
COc1ccc(N(CCc2cccc(C)n2)C(=O)C2CCCCC2)cc1 [MMV675996]	63.13	25.83			
CCc1nc2ccccc2n1CC(O)COc1cc(C)ccc1Cl (centres unmarked) [MMV676449]	92.26	88.05			
COc1cncc(-c2cncc(N3CCN(c4ccncc4)CC3)n2)c1 [MMV085071]	93.07	82.11			
Clc1ccc(CCNc2cc(-c3ccccc3)nc3ncnn23)cc1 [MMV688889]	73.23	59.03			
O=[N+]([O-])c1cn2c(n1)OC[C@@H](OCc1ccc(OC(F)(F)F)cc1)C2 [MMV688755]	26.38	0.45			
CC(=O)OCC1OC([S-])C(OC(C)=O)C(OC(C)=O)C1OC(C)=O.CCP(CC)CC.[Au+] (centres unmarked) [MMV688978, Auranofin, reference compound]	-2.60	-2.20			170
CN(C)CCNC(=O)N1CCCN(c2ncnc3cc(-c4ccccc4)sc23)CC1 [MMV024195]	89.61	76.61			
O=C(c1n[nH]c2c1CCCC2)N1CCN(Cc2ccc3c(c2)OCO3)CC1 [MMV676389]	67.21	71.87			
NC(CC(=O)c1ccc(Cl)cc1Cl)C(Cl)(Cl)Cl (centres unmarked) [MMV676468]	106.85	84.33			
Nc1cccnc1Nc1ccc(Cl)cc1 [MMV676524]	60.00	65.52			

SMILES	Relative Bioluminescence (%) [1] [%]	Relative Bioluminescence (%) [2] [%]	viability at 2 µM (Leishmania mexicana, 2 µM compound, 72 hours, relative to DMSO only control, n = 4, read-out: Relative Bioluminescence (%)) [%]	viability at 10 µM (Leishmania mexicana, 10 µM compound, 72 hours, relative to DMSO only control, n = 4, read-out: Relative Bioluminescence (%)) [%]	EC50 [nM]
COC(=O)c1c(NC(=O)c2cc3ccccc3oc2=O)sc2c1CCN(Cc1ccccc1)C2 [MMV676480]	96.73	61.83			
O=C(NCCN1CCCC1)c1cc(NCCCCN2CCC(F)(F)CC2)nc2ccc(Cl)cc12 [MMV667494]	55.75	61.89			
O=C(CN1CCOCC1)Nc1ccc2ncnc(Nc3ccc(OCc4cccc(F)c4)c(Cl)c3)c2c1 [MMV688274]	72.23	7.31			
Cn1ncc2c(N3CCOCC3)nc(NCCc3c[nH]c4ccccc34)nc21 [MMV676382]	73.92	64.75			
COc1ccc(Cl)cc1NC(=O)CN(C)C(=O)c1cnn(-c2ccccc2)n1 [MMV020710]	102.08	128.98			
O=C(CCC1CCCCC1)Nc1cccc(-c2nnc(-c3ccco3)o2)c1 [MMV676589]	54.08	15.64			
CCCCc1ccc(C(=O)Nc2nccc3ccccc23)nc1 [MMV687254]	63.72	-0.07			
COc1cc(C2=NCCN2)cc2cc(-c3ccc(C4=NCCN4)cc3)oc12 [MMV688362]	95.50	90.68			
O=C(c1cc2ccccc2o1)N1CCN(Cc2ccc3c(c2)OCO3)CC1 [MMV676520]	56.86	68.82			
Clc1cccc(CO[C@H]2CCc3ccccc3[C@@H]2n2ccnn2)c1 [MMV676159]	101.47	98.27			
COc1ccc(C2CC(c3cccs3)=NN2C(=O)c2ccco2)cc1OC (centres unmarked) [MMV019234]	106.08	39.61			
CC(C)(C)c1cnc(NC(=O)c2ccccc2O)s1 [MMV495543]	70.90	27.02			
COc1ccccc1OCCCCn1c(C2CC2)nc2ccccc21 [MMV676474]	84.28	88.48			
COc1ccc(-c2cc(NC(=O)c3ccc(F)cc3Cl)ccc2OC)cc1 [MMV676526]	103.78	46.48			
CC1(C)Cc2c(c(N3CCOCC3)nc3snc(Br)c23)CO1 [MMV687794]	97.30	72.05			
Cc1cc(C(=O)Nc2ccc(-c3ccccc3)cc2)no1 [MMV020152]	89.71	108.81			
CCOC(=O)c1noc(N)c1-c1ccccc1 [MMV1236379]	77.18	52.39			
O=C(Nc1nnc(-c2ccc(Cl)s2)o1)c1ccc(Cl)s1 [MMV676501]	-0.04	-0.69			300
COc1ccc(-c2nn(C(C)C)c3ncnc(N)c23)cc1OC [MMV675993]	66.21	27.37			
c1coc(CNc2nc(N3CCCCC3)nc3ccccc23)c1 [MMV676401]	91.23	75.18			
